Experimental data: ChEMBL document CHEMBL3045687, “Anti-microbial benzimidazole derivatives: synthesis and in vitro biological evaluation” (2012)

Assays:
Format in all cases: functional
[1] = system: Escherichia coli; assay: Antimicrobial activity against Escherichia coli assessed as zone of inhibition at 12.5 ug/ml after 18 to 24 hr by two-fold dilution technique relative to control
[2] = system: Staphylococcus aureus; assay: Antimicrobial activity against Staphylococcus aureus assessed as zone of inhibition at 12.5 ug/ml after 18 to 24 hr by two-fold dilution technique relative to control
[3] = system: Candida albicans; assay: Antimicrobial activity against Candida albicans assessed as zone of inhibition at 25 ug/ml after 48 hr by two-fold dilution technique relative to control

O=C(O)c1cn(C2CC2)c2cc(N3CCNCC3)c(F)cc2c1=O [CIPROFLOXACIN]
zone of inhibition at 12.5 µg/mL ([1]; read-out: DIZ): 15.9 mm
zone of inhibition at 12.5 µg/mL ([2]; read-out: DIZ): 14.4 mm

O=[N+]([O-])c1ccc2[nH]c(/C=C/c3ccc(O)cc3)nc2c1
inhibition at 12.5 µg/mL [1]: 76.9%
inhibition at 25 µg/mL [3]: 75%
inhibition at 12.5 µg/mL [2]: 72.1%

OC(Cn1cncn1)(Cn1cncn1)c1ccc(F)cc1F [FLUCONAZOLE]
zone of inhibition at 25 µg/mL ([3]; read-out: DIZ): 13.4 mm

O=[N+]([O-])c1ccc2[nH]c(/C=C/c3ccc(Cl)cc3)nc2c1
inhibition at 12.5 µg/mL [1]: 80.7%
inhibition at 25 µg/mL [3]: 84.2%
inhibition at 12.5 µg/mL [2]: 82.1%

COc1ccc(/C=C/c2nc3cc(Cl)ccc3[nH]2)c(OC)c1OC
inhibition at 12.5 µg/mL [1]: 80.5%
inhibition at 25 µg/mL [3]: 93.1%
inhibition at 12.5 µg/mL [2]: 72.7%

Clc1ccc2[nH]c(/C=C/c3ccccc3)nc2c1
inhibition at 12.5 µg/mL [1]: 77.7%
inhibition at 25 µg/mL [3]: 88.5%
inhibition at 12.5 µg/mL [2]: 76.2%

O=[N+]([O-])c1ccc(/C=C/c2nc3cc([N+](=O)[O-])ccc3[nH]2)cc1
inhibition at 12.5 µg/mL [1]: 77.1%
inhibition at 25 µg/mL [3]: 75.3%
inhibition at 12.5 µg/mL [2]: 69.7%

COc1ccc(/C=C/c2nc3cc(Cl)ccc3[nH]2)cc1OC
inhibition at 12.5 µg/mL [1]: 80.5%
inhibition at 25 µg/mL [3]: 92.4%
inhibition at 12.5 µg/mL [2]: 75.2%

COc1ccc(/C=C/c2nc3cc([N+](=O)[O-])ccc3[nH]2)c(OC)c1OC
inhibition at 12.5 µg/mL [1]: 76.6%
inhibition at 25 µg/mL [3]: 82.5%
inhibition at 12.5 µg/mL [2]: 75.2%

Oc1ccc(/C=C/c2nc3cc(Cl)ccc3[nH]2)cc1
inhibition at 12.5 µg/mL [1]: 79.9%
inhibition at 25 µg/mL [3]: 75.6%
inhibition at 12.5 µg/mL [2]: 70.8%
